The source made the active and inactive calls. The calls are words filed in the database; no cut-off is given here.
Columns and labels:
U-87 MG [1] = assay: Synergistic antiproliferative activity against human U-87 MG cells harboring wildtype IDH1 assessed as inhibition of cell growth incubated for 48 hrs in presence of AG-120 by CCK8 assay; type: functional, cell-based, U-87MG ATCC
U-87 MG [2] = assay: Antiproliferative activity against human U-87 MG cells harboring wildtype IDH1 assessed as inhibition of cell growth incubated for 48 hrs by CCK8 assay; type: functional, cell-based, U-87MG ATCC
U-87 MG [3] = assay: cells; conditions: Homo sapiens, 48 h, read-out: Activity
U-87 MG [4] = type: functional, organism-based; conditions: Homo sapiens; U-87MG ATCC; dose 30.0 mg/kg, route ip, time 35.0 day
U-87MG ATCC [5] = assay: Effect on intracellular NADP+ level in human U-87 MG cells harboring wildtype IDH1; type: functional, cell-based
U-87 MG [6] = type: functional, cell-based, U-87MG ATCC; conditions: Homo sapiens, 48 h
U-87 MG [7] = assay: Antiproliferative activity against human U-87 MG cells harboring wildtype IDH1 assessed as inhibition of cell growth incubated for 72 hrs by CCK8 assay; type: functional, cell-based, U-87MG ATCC
U-87 MG [8] = assay: Antiproliferative activity against human U-87 MG cells harboring wildtype IDH1 assessed as inhibition of cell growth incubated for 24 hrs by CCK8 assay; type: functional, cell-based, U-87MG ATCC
U-87MG ATCC [9] = type: functional, cell-based; conditions: Homo sapiens, dose 0.5 µM, time 48.0 hrs
U-87 MG [10] = type: functional, cell-based, U-87MG ATCC; conditions: Homo sapiens, 48 h; remark: listed apart in the source
U-87 MG [11] = type: functional, cell-based, U-87MG ATCC; conditions: Homo sapiens, 72 h
U-87 MG [12] = assay: cells; conditions: Homo sapiens, 48 h, read-out: Activity; remark: listed apart in the source
U-87 MG [13] = assay: Synergistic antiproliferative activity against human U-87 MG cells harboring wildtype IDH1 assessed as inhibition of cell growth incubated for 48 hrs in presence of IDH305 by CCK8 assay; type: functional, cell-based, U-87MG ATCC
U-87 MG [14] = type: functional, cell-based, U-87MG ATCC; conditions: Homo sapiens, 24 h
U-87 MG [15] = type: functional, cell-based, U-87MG ATCC; conditions: Homo sapiens, 48 h; remark: listed apart in the source
U-87 MG [16] = type: functional, Homo sapiens, U-87MG ATCC; conditions: time 48 hrs
U-87 MG [17] = type: functional, Homo sapiens, U-87MG ATCC; conditions: dose 300 mg/kg; route po; time 35 day
U-87 MG [18] = assay: Synergistic antiproliferative activity against human U-87 MG cells harboring wildtype IDH1 assessed as combination index incubated for 48 hrs in presence of FK866 by CCK8 assay; type: functional, U-87MG ATCC
U-87 MG [19] = type: functional, cell-based, U-87MG ATCC; conditions: Homo sapiens, 48 h; remark: listed apart in the source
U-87 MG [20] = type: functional, organism-based; conditions: Homo sapiens; U-87MG ATCC; dose 300.0 mg/kg, route po, time 35.0 day
U-87 MG [21] = type: functional, Homo sapiens, U-87MG ATCC; conditions: dose 300 mg/kg; route po; time 35 day; remark: listed apart in the source
U-87 MG [22] = assay: Synergistic antiproliferative activity against human U-87 MG cells harboring wildtype IDH1 assessed as inhibition of cell growth incubated for 48 hrs in presence of FK866 by CCK8 assay; type: functional, cell-based, U-87MG ATCC

SMILES | IC50 (U-87 MG [2]) | Activity (U-87MG ATCC [5]) | IC50 (U-87 MG [7]) | IC50 (U-87 MG [8]) | Activity (U-87MG ATCC [9]) | IC50 (U-87 MG [10]) | IC50 (U-87 MG [11]) | viability at 1 µM (U-87 MG [12]) | IC50 (U-87 MG [14]) | other results
O=C(/C=C/c1cccnc1)NCCCCC1CCN(C(=O)c2ccccc2)CC1 [DAPORINAD] | 2.55 µM | inactive | 1.63 µM | 5.46 µM | inactive | 0.97 µM | 0.41 µM | 40.8% | 1.04 µM | IC50 (U-87 MG [1]): 2.51 µM; viability at 1 µM (U-87 MG [3]): 27.8%; Activity (U-87 MG [4]): Active; IC50 (U-87 MG [6]): 0.56 µM; IC50 (U-87 MG [13]): 1.69 µM; IC50 (U-87 MG [15]): 0.45 µM
Cc1cc([C@H](C)Nc2nccc(N3C(=O)OC[C@@H]3[C@H](C)F)n2)ncc1-c1ccnc(C(F)(F)F)c1 | 7.57 µM | inactive | 3.54 µM | 20.1 µM | inactive | 0.44 µM | 0.36 µM | 34.7% | 1.04 µM | CI (U-87 MG [16]): 0.91; MST (U-87 MG [17]): 26.5 days; CI (U-87 MG [18]): 0.83; IC50 (U-87 MG [19]): 0.45 µM; Activity (U-87 MG [20]): Active; MST (U-87 MG [21]): 23.5 days; IC50 (U-87 MG [22]): 1.69 µM

— ChEMBL document CHEMBL5506022, “Discovery of Novel Dual Inhibitors Targeting Mutant IDH1 and NAMPT for the Treatment of Glioma with IDH1Mutation” (J Med Chem, 2024)
